Source: publication PMC12693701, “Glucosinolate-Derived Metabolites from Barbarea vulgaris (Brassicaceae): Evaluation of Antimicrobial, Antioxidant, and Anti-Inflammatory Potentials” (Molecules, 2025)
Values after ≈ are worked out from the molar mass of the structure shown. Read-outs that look alike come from different tables or passages of the source.

Columns and labels:
B. cereus = test: Microdilution MIC/MMC with resazurin; format: cell-based, Bacillus cereus; conditions: for MIC: Bacillus cereus
Protocol: (§1) The antimicrobial activity was evaluated against 15 microorganisms. This included 11 bacterial strains: four standard strains (Staphylococcus aureus ATCC 25923, Bacillus subtilis ATCC 6633, Bacillus pumilus NCTC 8241, and Escherichia coli ATCC 25922) and six clinical or environmental isolates (Staphylococcus aureus, Escherichia coli, Bacillus cereus, Proteus mirabilis, Salmonella enterica, and Klebsiella pneumoniae). One probiotic strain, Bifidobacterium animalis subsp. lactis was tested. In addition, four fungal strains, Candida albicans ATCC 10231, Trichoderma viride ATCC 13233, Aspergillus flavus ATCC 9170, and Fusarium solani ATCC 11712 were tested. The bacterial strains were kept in glycerol stock at −80 °C and the fungal strains in paraffin oil stock at 4 °C.
(§2) Bacterial and yeast suspensions were prepared using the direct colony method, as previously described by Andrews. The turbidity of the initial suspensions was adjusted to match the 0.5 McFarland standard using a densitometer (Biosan, Riga, Latvia), corresponding to approximately 10^8 colony-forming units (CFU)/mL for bacterial cells and 10^6 CFU/mL for yeast cells. Subsequently, 1:100 dilutions of the initial suspensions were prepared in sterile 0.85% saline. Fungal spore suspensions were obtained by gently harvesting spores from agar slopes containing mature mycelial growth. The collected spore suspensions were then diluted 1:1000 in sterile 0.85% saline prior to use.
(§3) Antimicrobial activity was evaluated by determining the minimum inhibitory concentration (MIC) and minimum microbicidal concentration (MMC) using the microdilution plate method with resazurin as an indicator [28]. In the 96-well plates, 100 μL of Mueller–Hinton broth (Torlak, Belgrade, Serbia) for bacterial testing and Sabouraud broth (Torlak, Belgrade, Serbia) for fungal testing were dispensed into each well. The compounds under investigation were initially dissolved in a 10% dimethyl sulfoxide (DMSO) solution, followed by dilution in sterile distilled water, resulting in a working compound solution containing 1% DMSO. A 100 μL aliquot of the stock solution of the tested compound was added to the first row, and twofold serial dilutions were then carried out using a multichannel pipette. The resulting concentration range was from 5 to 0.039 mg/mL. The inoculated microtiter plates were incubated at 37 °C for 24 h for bacteria, at 28 °C for 48 h for yeasts, and at 28 °C for 72 h for molds.
(§4) Each test also included growth control and sterility control. All tests were conducted in duplicate. MIC was defined as the lowest concentration of tested compounds that prevented resazurin color change from blue to pink. For molds, MIC values of the tested compound were determined as the lowest concentration that inhibited visible mycelia growth. MMC was determined by inoculation of the nutrient agar medium by plating […] of samples from wells, where no indicator color change was recorded. At the end of the incubation period, the lowest concentration with no growth (no colony) was defined as MMC.
(§5) Doxycycline, ampicillin and amphotericin B (- Sigma-Aldrich, St. Louis, MO, USA) and ketoconazole (Hemofarm A.D., Vršac, Serbia) were dissolved in a nutrient liquid medium. Doxycycline is a broad-spectrum antibiotic effective against both aerobic and anaerobic Gram-positive and Gram-negative bacteria. Ampicillin, a beta-lactam antibiotic, primarily targets Gram-positive bacteria but also some Gram-negative strains. Amphotericin B is an antifungal drug often used for serious systemic fungal infections and is one of the effective treatments for fungal infections caused by Aspergillus sp. Ketoconazole is an antifungal agent used to inhibit the growth of Candida species.

B. pumilus NCTC 8241 = test: Microdilution MIC/MMC with resazurin; format: cell-based, Bacillus pumilus; conditions: for MIC: Bacillus pumilus, NCTC8241
Protocol: as §1, §2, §3, §4, §5

[1] = test system: B. animalis subsp. lactis; test: Microdilution MIC/MMC with resazurin; format: cell-based, Bifidobacterium animalis subsp. lactis
Protocol: as §1, §2, §3, §4, §5

S. aureus ATCC 25923 = test: Microdilution MIC/MMC with resazurin; format: cell-based, Staphylococcus aureus; conditions: for MIC: Staphylococcus aureus, ATCC25923
Protocol: as §1, §2, §3, §4, §5

S. aureus = test: Microdilution MIC/MMC with resazurin; format: cell-based, Staphylococcus aureus; conditions: for MIC: Staphylococcus aureus
Protocol: as §1, §2, §3, §4, §5

P. mirabilis = test: Microdilution MIC/MMC with resazurin; format: cell-based, Proteus mirabilis; conditions: for MIC: Proteus mirabilis
Protocol: as §1, §2, §3, §4, §5

S. enterica = test: Microdilution MIC/MMC with resazurin; format: cell-based, Salmonella enterica; conditions: compounds 1–8; for MIC: Salmonella enterica
Protocol: as §1, §2, §3, §4, §5

T. viride ATCC 13233 = test: Microdilution MIC/MMC; format: cell-based, Trichoderma viride
Protocol: as §1, §2, §3, §4, §5

A. flavus ATCC 9170 = test: Microdilution MIC/MMC; format: cell-based, Aspergillus flavus
Protocol: as §1, §2, §3, §4, §5

[2] = DPPH radical scavenging assay; conditions: mean ± SD
Protocol: The DPPH assay was used to assess the ability of the tested compounds to scavenge reactive radical species. Stock solutions of the investigated compounds were prepared in DMSO and then diluted with methanol to a final volume of 1000 µL. An equal volume of a 50 µM DPPH solution in methanol was then added to the prepared mixture. The final concentrations of the test compounds were 25, 50, and 100 µM. After thorough mixing, the samples were incubated in the dark at room temperature for 20 to 60 min. Methanol was used as a blank, and absorbance was measured at 517 nm after incubation. All measurements were performed in triplicate.

[3] = B. cereus, compounds 1–8, read-out: MIC
[4] = B. pumilus NCTC 8241, compounds 1–8
[5] = B. pumilus NCTC 8241, compounds 1–8, read-out: MIC
[6] = B. animalis subsp. lactis, compounds 1–8
[7] = Bifidobacterium animalis, B. animalis subsp. lactis, compounds 1–8, read-out: MIC
[8] = S. aureus ATCC 25923, compounds 1–8
[9] = S. aureus ATCC 25923, compounds 1–8, read-out: MIC
[10] = S. aureus isolate, compounds 1–8
[11] = S. aureus isolate, compounds 1–8, read-out: MIC
[12] = P. mirabilis, compounds 1–8, read-out: MIC
[13] = T. viride ATCC 13233, compounds 1–8
[14] = Trichoderma viride, ATCC13233, T. viride ATCC 13233, compounds 1–8, read-out: MIC
[15] = A. flavus ATCC 9170, compounds 1–8
[16] = Aspergillus flavus, ATCC9170, A. flavus ATCC 9170, compounds 1–8, read-out: MIC

Row | SMILES | MMC (B. cereus; B. cereus, compounds 1–8) [mg/mL] | MIC (B. cereus; [3]) [µg/mL] | MMC (B. pumilus NCTC 8241; [4]) [mg/mL] | MIC (B. pumilus NCTC 8241; [5]) [µg/mL] | MMC [1, 6] [mg/mL] | MIC [1, 7] [µg/mL] | MMC (S. aureus ATCC 25923; [8]) [mg/mL] | MIC (S. aureus ATCC 25923; [9]) [µg/mL] | MMC (S. aureus; [10]) [mg/mL] | MMC (P. mirabilis; P. mirabilis, compounds 1–8) [mg/mL] | MIC (S. enterica) [µg/mL] | MMC (S. enterica) [mg/mL] | MMC (T. viride ATCC 13233; [13]) [mg/mL] | MMC (A. flavus ATCC 9170; [15]) [mg/mL] | DPPH Scavenging Ability ([2]; 25 µM, 20 min) [%] | DPPH Scavenging Ability ([2]; 25 µM, 60 min) [%] | DPPH Scavenging Ability ([2]; 50 µM, 20 min) [%] | DPPH Scavenging Ability ([2]; 50 µM, 60 min) [%] | DPPH Scavenging Ability ([2]; 100 µM, 20 min) [%] | DPPH Scavenging Ability ([2]; 100 µM, 60 min) [%] | also measured
1 | S=C1NC[C@H](c2ccccc2)O1 [Compound 5, (S)-5-phenyl-1,3-oxazolidine-2-thione] | >5 | > 5000 | 5 | 2500 (≈ 13.9 mM) | 5 | 1250 (≈ 6.97 mM) | >5 | 5000 (≈ 27.9 mM) | >5 | 5 | 5000 (≈ 27.9 mM) | >5 | 5 | >5 | 7.0 ± 0.9 | 8.4 ± 0.5 | 14.8 ± 0.7 | 16.4 ± 0.4 | 21.6 ± 1.2 | 22.4 ± 0.7 | MIC (S. aureus; [11]): > 5000 µg/mL; MIC (P. mirabilis; [12]): 5000 µg/mL (≈ 27.9 mM); MIC (T. viride ATCC 13233; [14]): 5000 µg/mL (≈ 27.9 mM); MIC (A. flavus ATCC 9170; [16]): > 5000 µg/mL
2 | O=C1NCC(c2ccccc2)S1 (stereo not drawn) [Compound 6, 5-phenyl-1,3-thiazolidin-2-one] | >5 | > 5000 | >5 | > 5000 | >5 | > 5000 | >5 | > 5000 | >5 | >5 | > 5000 | >5 | >5 | >5 | 3.1 ± 0.6 | 3.0 ± 0.7 | 4.2 ± 0.8 | 4.6 ± 0.6 | 5.9 ± 0.9 | 5.8 ± 1.4 | MIC (S. aureus; [11]): > 5000 µg/mL; MIC (P. mirabilis; [12]): > 5000 µg/mL; MIC (T. viride ATCC 13233; [14]): > 5000 µg/mL; MIC (A. flavus ATCC 9170; [16]): > 5000 µg/mL
3 | O=C1NCC(c2ccccc2)O1 (stereo not drawn) [Compound 7, 5-Phenyl-1,3-oxazolidin-2-one] | 5 | 5000 (≈ 30.6 mM) | 5 | 5000 (≈ 30.6 mM) | 5 | 2500 (≈ 15.3 mM) | 5 | 5000 (≈ 30.6 mM) | 5 | 2.5 | 1250 (≈ 7.66 mM) | 2.5 | 2.5 | 2.5 | 1.1 ± 0.4 | 0.9 ± 0.7 | 1.5 ± 0.9 | 1.5 ± 0.8 | 2.6 ± 1.0 | 2.7 ± 1.5 | MIC (S. aureus; [11]): 2500 µg/mL (≈ 15.3 mM); MIC (P. mirabilis; [12]): 2500 µg/mL (≈ 15.3 mM); MIC (T. viride ATCC 13233; [14]): 1250 µg/mL (≈ 7.66 mM); MIC (A. flavus ATCC 9170; [16]): 2500 µg/mL (≈ 15.3 mM)
4 | Oc1ccc(CCN=C=S)cc1 [Compound 8, 2-(4-hydroxyphenyl)ethyl isothiocyanate] | 1.25 |  | 0.156 |  | 0.625 |  | 0.625 |  | 0.312 | 0.625 | 312 (≈ 1.74 mM) | 1.25 | <0.039 | <0.039 | 4.4 ± 1.0 | 4.7 ± 1.2 | 7.3 ± 1.3 | 8.1 ± 1.3 | 13.1 ± 0.7 | 14.2 ± 0.9 | MIC (B. cereus): 156 µg/mL (≈ 0.87 mM); MIC (B. pumilus NCTC 8241): 156 µg/mL (≈ 0.87 mM); MIC [1, 6]: <39 µg/mL; MIC ([1]; Bifidobacterium animalis): < 39 µg/mL; MIC (S. aureus ATCC 25923): 156 µg/mL (≈ 0.87 mM); MIC (S. aureus): 78 µg/mL (≈ 0.435 mM); MIC (P. mirabilis): 156 µg/mL (≈ 0.87 mM); MIC (T. viride ATCC 13233; [13]): <39 µg/mL; MIC (T. viride ATCC 13233; Trichoderma viride, ATCC13233): < 39 µg/mL; MIC (A. flavus ATCC 9170; [15]): <39 µg/mL; MIC (A. flavus ATCC 9170; Aspergillus flavus, ATCC9170): < 39 µg/mL
